Where “and” joins values, the source holds several entries; their conditions need not be identical. Equal values may be shown once.
Legend:
[1] = system: croton oil-induced ear edema; test: Mouse ear edema inhibition test (croton oil); assay type: in vivo, male ICR mouse; conditions: ear swelling thickness 4 hours after 2.5% croton oil, oral 20 mg/kg, 1 hour before
Procedure: To achieve active fraction and ingredient identification of herbal extracts, an activity-guided sub-fractionation was conducted by way of a mouse ear edema inhibition test. To evaluate the edema inhibitory effects of the MC, EA and BuOH fractions from the herbal extracts of Examples 1.2 and 1.3 and the three compounds identified above, an activity test was conducted according to a method by Hee Kee Kim et al. [Hee Kee Kim et al., Arch. Pharm. Res. 16(1), 1993, 18-24]. The positive control group received Indomethacin (purchased from Sigma) at a dosage of 20 mg/kg. The test group received 200 mg/kg of the MC, EA or BuOH fraction, or 20 mg/kg of the compound 1, 2 or 3. One hour after the oral administration, 2.5% croton oil (purchased from Sigma) was applied to the one ear of a male ICR mouse (7 weeks old, 28-32 g, Orient) to induce an acute inflammation. In 4 hours, the swelling of the ear was measured in terms of thickness.

[2] = system: gentamicin-induced nephritis model; test: Therapeutic effect of compounds 1-3 on gentamicin-induced nephritis model (Experimental Example 10); assay type: in vivo, male SD rats; conditions: for Creatinine / B.U.N.: 20 mg/kg; for Creatinine: negative control 1.32 ± 0.12, normal 0.45 ± 0.01; for B.U.N.: negative control 83.0 ± 5.1, normal 12.4 ± 0.6
Procedure: A normal group was subjected to the tests, where a nephritis-inducing factor, gentamicin (purchased from Whail Pharma. Co., Ltd.) was administered to male SD rats (7 weeks old, 195-205 g, Orient) at a dosage of 240 mg/kg for 6 days through an intraperitioneal injection to induce nephritis. Among the test rats with induced nephritis, the test groups other than the negative control group received the 2 test drugs of Example 2 or the test drug of Example 3.1 or 3.4 orally at a daily dosage of 400 mg/kg. The test rats were autopsied 7 days after the oral administrations. The blood samples collected were analyzed to detect blood urea nitrogen (B.U.N.) and creatinine.
To evaluate the therapeutic effect for nephritis of the three compounds of Experimental Example 9, the procedures were carried out in the same manner of Experimental Example 1 to measure the B.U.N and creatinine contents in the gentamicin-induced nephritis model. Reagents were the compounds 1, 2 and 3, which were the active fractions from the herbal extracts of Cinnamomi Cortex and Prunella Spica.

[3] = relative to negative control group

| Compound | % Inhibition ([1]; 20 mg/kg) | % Inhibition ([1]; listed as positive control group, 20 mg/kg) [%] | % Inhibition [1] [%] | Creatinine [2] [mg/dL] | B.U.N. [2] [mg/dL] | effect on blood urea nitrogen (B.U.N.) content [2, 3] | effect on creatinine content [2, 3] |
| --- | --- | --- | --- | --- | --- | --- | --- |
| COc1ccc2c(c1)c(CC(=O)O)c(C)n2C(=O)c1ccc(Cl)cc1 [Positive Control Group, Indomethacin, reference compound] | 38.81% | 39 |  |  |  |  |  |
| O=C(/C=C/c1ccc(O)c(O)c1)O[C@H](Cc1ccc(O)c(O)c1)C(=O)O [Compound 3, Rosmarinic acid] |  |  | 28.90 | 0.97 ± 0.06 | 63.1 ± 7.2 |  |  |
| O=c1ccc2ccccc2o1 [Compound 2, Coumarin] | 39% and 38.79% |  |  | 0.88 ± 0.06 | 50.9 ± 4.7 | showed an effect of reducing the blood urea nitrogen (B.U.N.) content |  |
| O=C(O)C=Cc1ccccc1 [Compound 1, Cinnamic acid] | 42% and 42.40% |  |  | 0.81 ± 0.07 | 47.7 ± 5.7 | showed an effect of reducing the blood urea nitrogen (B.U.N.) content | reduced the creatinine content |
